# Measurements published in patent US10709709B2, “Substituted carbonucleoside derivatives useful as anticancer agents” (Pfizer Inc., priority 2016, dated 2020).
# Columns and labels:
# [1] = tested on: A549 lung adenocarcinoma cells; assay: A549 proliferation assay (Cell Titer Glo); assay type: cell-based; details: Homo sapiens, 7 days with compound, cell viability by Cell Titer Glo (ATP)
# Method: A549 lung adenocarcinoma cells (American Type Culture Collection) were maintained in DMEM growth media (Life Technologies) supplemented with 10% v/v heat inactivated fetal bovine serum (Sigma) and cultured at 37° C., 5% CO2. Exponentially growing A549 cells were plated in 96-well black tissue culture treated plates (Corning) at a density of […] in a volume of 100 μl culture media and allowed to adhere overnight at 37° C., 5% CO2. The following day, compound plates were prepared by making nine-point 3.3-fold dilutions in DMSO with a top concentration of 10 mM. Compounds were further diluted in culture media and 11 μl was added to the cells (final top assay concentration was 10 μM and DMSO was 0.2%). Cells were incubated with compound at 37° C., 5% CO2 for 7 days with media and compound replacement on day 4. Cell viability was assayed on Day 7 by adding 100 μl Cell Titer Glo (Promega) reagent to the plate to measure the amount of ATP present in the cells. Luminescence was read using the Envision 2104 Multilabel Reader (Perkin Elmer). The 50% inhibitory concentration (IC50) was determined using a 4-parameter fit model normalized to the DMSO control in dose response.
# [2] = molecular target: PRMT5/MEP50 protein complex (Homo sapiens (Human), UniProt O14744); assay: PRMT5 biochemical assay (3H-SAM methylation of H4(1-21) peptide, filter plate scintillation); details: 10 nM PRMT5/MEP50 complex, 200 nM H4(1-21) peptide, 1 uM SAM, 25 minute incubation at room temperature
# PRMT5/MEP50 protein complex, sequence (O14744 other isoform, or with tags, fused parts or gaps): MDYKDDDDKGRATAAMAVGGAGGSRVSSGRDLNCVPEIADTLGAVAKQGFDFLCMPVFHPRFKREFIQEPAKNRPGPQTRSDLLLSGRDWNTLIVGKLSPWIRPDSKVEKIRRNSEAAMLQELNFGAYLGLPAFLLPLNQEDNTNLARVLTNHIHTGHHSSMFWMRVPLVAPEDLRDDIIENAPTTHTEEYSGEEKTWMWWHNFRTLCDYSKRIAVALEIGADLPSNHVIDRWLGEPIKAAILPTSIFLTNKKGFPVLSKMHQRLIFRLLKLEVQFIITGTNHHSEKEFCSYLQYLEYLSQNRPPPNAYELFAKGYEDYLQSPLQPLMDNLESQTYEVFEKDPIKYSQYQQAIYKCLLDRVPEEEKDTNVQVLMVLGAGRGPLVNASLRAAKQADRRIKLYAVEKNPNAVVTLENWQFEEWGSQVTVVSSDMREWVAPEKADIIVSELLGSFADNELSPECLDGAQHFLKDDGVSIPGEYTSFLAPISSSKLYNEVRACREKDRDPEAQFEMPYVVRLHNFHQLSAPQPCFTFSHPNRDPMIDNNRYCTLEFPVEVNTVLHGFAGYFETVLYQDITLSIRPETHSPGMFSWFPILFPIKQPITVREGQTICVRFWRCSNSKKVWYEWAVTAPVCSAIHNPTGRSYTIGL
# PRMT5/MEP50 protein complex, sequence (Q9BQA1 whole entry partner): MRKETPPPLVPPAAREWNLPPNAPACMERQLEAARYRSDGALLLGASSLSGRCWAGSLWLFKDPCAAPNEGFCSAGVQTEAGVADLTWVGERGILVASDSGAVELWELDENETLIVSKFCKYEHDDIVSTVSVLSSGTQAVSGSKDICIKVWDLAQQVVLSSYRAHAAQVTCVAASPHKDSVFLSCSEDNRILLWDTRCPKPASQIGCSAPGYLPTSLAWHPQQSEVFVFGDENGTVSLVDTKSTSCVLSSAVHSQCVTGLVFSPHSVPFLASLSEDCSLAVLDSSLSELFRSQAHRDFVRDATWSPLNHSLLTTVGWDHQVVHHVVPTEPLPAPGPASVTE
# Procedure, shortened: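 Scintillation read-out: after 25 min at room temperature and a TCA stop, tritiated H4(1-21) product (peptide 200 nM) is caught on a filter plate. Reaction holds 10 nM PRMT5/MEP50 and 1 uM 3H-labelled plus cold SAM in 50 mM Tris pH 8.5 with MgCl2, EDTA and TCEP. IC50 values come from a 4-parameter dose-response fit.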
SMILES,"IC50 ([1]; A549, 168 h)",IC50 [2],IC50 ([1]; 168 h)
"Cc1ncnc2c1ccn2C1C[C@H](Oc2cccc3ccncc23)[C@@H](O)[C@H]1O (stereo partly drawn) [Example 77, (1S,2S,3S,5R)-3-(isoquinolin-8-yloxy)-5-(4-methyl-7H-pyrrolo[2,3-d]pyrimidin-7-yl)cyclopentane-1,2-diol]",1120 nM,65 nM,
"Cc1ncnc2c1ccn2[C@@H]1C[C@H](Oc2cc(C#N)cc3c2CNCC3)[C@@H](O)[C@H]1O [Example 91, 8-(((1S,2S,3S,4R)-2,3-dihydroxy-4-(4-methyl-7H-pyrrolo[2,3-d]pyrimidin-7-yl)cyclopentyl)oxy)-1,2,3,4-tetrahydroisoquinoline-6-carbonitrile]",119 nM,1 nM,
"Nc1ncnc2c1c(Br)cn2[C@@H]1C[C@H](Oc2cc(F)c(F)c3c2CNCC3)[C@@H](O)[C@H]1O [Example 125, (1S,2S,3R,5S)-3-(4-amino-5-bromo-7H-pyrrolo[2,3-d]pyrimidin-7-yl)-5-((5,6-difluoro-1,2,3,4-tetrahydroisoquinolin-8-yl)oxy)cyclopentane-1,2-diol]",637 nM,1 nM,
"Nc1ncnc2c1c(F)cn2[C@@H]1C[C@H](Oc2cc(Br)c(F)c3c2CNCC3)[C@@H](O)[C@H]1O [Example 109, (1S,2S,3R,5S)-3-(4-amino-5-fluoro-7H-pyrrolo[2,3-d]pyrimidin-7-yl)-5-((6-bromo-5-fluoro-1,2,3,4-tetrahydroisoquinolin-8-yl)oxy)cyclopentane-1,2-diol]",67 nM,1 nM,
"Cc1ncnc2c1ccn2[C@@H]1C[C@H](Cc2ccc(Cl)cc2CN)[C@@H](O)[C@H]1O [Example 55, (1S,2R,3S,5R)-3-(2-(aminomethyl)-4-chlorobenzyl)-5-(4-methyl-7H-pyrrolo[2,3-d]pyrimidin-7-yl)cyclopentane-1,2-diol]",3170 nM,2 nM,
"Cc1ncnc2c1ccn2[C@@H]1C[C@H]([C@H](O)c2ccc(Cl)cc2)[C@@H](O)[C@H]1O [Example 11, (1S,2R,3R,5R)-3-[(S)-(4-chlorophenyl)(hydroxy)methyl]-5-(4-methyl-7H-pyrrolo[2,3-d]pyrimidin-7-yl)cyclopentane-1,2-diol]",,20 nM,1390 nM

# Further lines, with some results ahead:
"IC50 ([1]; A549, 168 h)",IC50 [2],SMILES,IC50 ([1]; 168 h)
2 nM,1 nM,"Cc1ncnc2c1ccn2[C@@H]1C[C@H](Oc2cc(C(F)F)cc3c2CNCC3)[C@@H](O)[C@H]1O [Example 154, (1S,2S,3S,5R)-3-((6-(difluoromethyl)-1,2,3,4-tetrahydroisoquinolin-8-yl)oxy)-5-(4-methyl-7H-pyrrolo[2,3-d]pyrimidin-7-yl)cyclopentane-1,2-diol]",
111 nM,1 nM,"Cc1ncnc2c1ccn2[C@@H]1C[C@H](Oc2nc(C(F)F)cc3c2CNCC3)[C@@H](O)[C@H]1O [Example 194, (1S,2S,3S,5R)-3-((3-(difluoromethyl)-5,6,7,8-tetrahydro-2,7-naphthyridin-1-yl)oxy)-5-(4-methyl-7H-pyrrolo[2,3-d]pyrimidin-7-yl)cyclopentane-1,2-diol]",
637 nM,1 nM,"Cc1ncnc2c1ccn2[C@@H]1C[C@H](Oc2cc(Cl)c(F)cc2[C@H](C)N)[C@@H](O)[C@H]1O [Example 139, (1S,2S,3S,5R)-3-(2-((S)-1-aminoethyl)-5-chloro-4-fluorophenoxy)-5-(4-methyl-7H-pyrrolo[2,3-d]pyrimidin-7-yl)cyclopentane-1,2-diol]",
743 nM,37 nM,"Cc1cc2cccc(O[C@H]3C[C@@H](n4ccc5c(C)ncnc54)[C@H](O)[C@@H]3O)c2cn1 [Example 169, (1S,2S,3R,5S)-3-(4-methyl-7H-pyrrolo[2,3-d]pyrimidin-7-yl)-5-((3-methylisoquinolin-8-yl)oxy)cyclopentane-1,2-diol]",
9530 nM,12 nM,"Cc1ncnc2c1ccn2[C@@H]1C[C@H](Oc2cccc3c2C(N)CCC3)[C@@H](O)[C@H]1O (single isomer, unassigned) [Example 186]",
